This note sets out measurements from ChEMBL document CHEMBL1201862, “PubChem BioAssay data set” (2004).

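Method: 48-hour compound exposure of cells in 96-well plates, five concentrations, linear interpolation of endpoints. Here, GI50 denotes the concentration required for 50% inhibition of growth.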 Active and inactive are the calls of the source. Rule as the data show it: active = GI50 up to about 1.1 µM and inactive = higher.

Holding throughout (experiment): NCI-60 cell line screen, 48 h
In test [1] the test system is NCI/ADR-RES.
The test system of test [2] is RPMI-8226.
Test [3] has as its system U-251.
Test [4] relates to MOLT-4.
The test system of test [5] is SK-MEL-2.
For test [6], the system named is MDA-MB-435.
The test system of test [7] is SNB-19.
For test [8], the system named is HOP-62.
The subject of test [9] is KM12.
Test [10] has as its system UACC-62.
In test [11] the test system is LOX IMVI.
In test [12] the test system is OVCAR-3.
Test [13] has as its system DU-145.
Test [14] concerns MDA-MB-231.
The subject of test [15] is SK-MEL-28.
Test [16] relates to HCC 2998.
Test [17] relates to UACC-257.
The test system of test [18] is SW-620.
Test [19] deals with MCF7.
In test [20] the test system is HCT-15.

For `CC(NNC(=O)CC(=O)N(C(=O)c1ccccc1)c1ccc(Cl)cc1)c1cc2ccccc2oc1=O` (stereo not given), the GI50 in test [1], in test [2], in test [3], in [4], in test [5] and in test [6] was > 10 µM (inactive) throughout. Also, the GI50 in [7], in [8], in [9], in [10], in test [11] and in test [12] was > 10 µM (inactive) each time. Moreover, the GI50 in [13], in test [14], in [15], in test [16], in [17] and in test [18] was > 10 µM (inactive) each time. Also, the results for the GI50 in test [19] and in test [20] were > 10 µM (inactive) and greater than 10 µM, respectively.
Take `CCCCCCC1OC23OC1CCC2C(O)CCC3O` (stereo not given): the GI50 in [1], in test [2], in [3], in test [4], in test [5] and in [6] was > 100 µM (inactive) throughout. The GI50 in test [7], in test [8], in test [9], in test [10], in test [11] and in test [12] was > 100 µM (inactive) in each case. In addition, the GI50 in test [13], in test [14], in [15], in test [16], in test [17] and in [18] was > 100 µM (inactive) throughout. Besides, the results for the GI50 in test [19] and in [20] were > 100 µM (inactive) and greater than 100 µM, respectively.
Regarding `O=C1OCC(c2ccc(Cl)cc2)=C1Cl`, the GI50 in test [1] is 26.9 µM (inactive); in [2], 23.8 µM (inactive); in [3], 35.8 µM (inactive); in [4], 32.1 µM (inactive); in [5], 22.9 µM (inactive); in [6], 33.2 µM (inactive). The GI50 in [7] is > 100 µM (inactive); in test [8], 22.9 µM (inactive); in test [9], 15.4 µM (inactive); in [10] it was 18.7 µM (inactive); in test [11] it was 23.2 µM (inactive); in test [12], 20.7 µM (inactive). Moreover, the GI50 in [13] was 49.5 µM (inactive); in test [14], 33.3 µM (inactive); in test [15] it was 49.9 µM (inactive); in test [16] it was 29 µM (inactive); in [17], 40 µM (inactive); in [18], 25.4 µM (inactive). Further, the GI50 is 17.5 µM (inactive) in test [19] and 29.9 µM in test [20].
`CN(CCCN1CCCC1)CCCN(C)C(=O)Cc1ccc(Cl)c(Cl)c1`: the GI50 is > 73.3 µM (inactive) in test [1]; 4.61 µM (inactive) in [2]; 14.9 µM (inactive) in [3]; 13.2 µM (inactive) in [4]; 13.5 µM (inactive) in [5]; 3.04 µM (inactive) in test [6]. Besides, the GI50 in test [7] is 26.9 µM (inactive); in test [8] it was 19.2 µM (inactive); in [9], 18.7 µM (inactive); in test [10] it was 2.36 µM (inactive); in [11], 12.7 µM (inactive); in test [12] it was 27 µM (inactive). Besides, the GI50 in test [13] is 43.9 µM (inactive); in test [14], 12.6 µM (inactive); in [15] it was 1.99 µM (inactive); in [16], 5.68 µM (inactive); in test [17] it was 2.55 µM (inactive); in test [18] it was 18.4 µM (inactive). For the same molecule, the GI50 in [19] was 16.6 µM (inactive); in [20], 26.1 µM.
Take `Cc1coc2c1C(=O)C(=O)c1c-2ccc2c1CCCC2(C)C` [TANSHINONE IIA]: the GI50 was 4.58 µM (inactive) in [1]; 1.94 µM (inactive) in [2]; 2.51 µM (inactive) in test [3]; 3.18 µM (inactive) in test [4]; 2.28 µM (inactive) in [5]; 1.48 µM (inactive) in [6]. For the same molecule, the GI50 in test [7] was 2.52 µM (inactive); in test [8], 1.95 µM (inactive); in [9] it was 3.76 µM (inactive); in test [10], 1.63 µM (inactive); in test [11] it was 0.342 µM (active); in [12], 0.303 µM (active). Further, the GI50 in test [13] is 2.52 µM (inactive); in test [14] it was 21.8 µM (inactive); in test [15] it was 2.15 µM (inactive); in [16] it was 4.06 µM (inactive); in test [17], 0.771 µM (active); in test [18], 2.42 µM (inactive). For the same molecule, the GI50 is 2.18 µM (inactive) in test [19] and 0.673 µM in test [20].
